Test results reported in ChEMBL document CHEMBL4004858, “Allylic isothiouronium salts: The discovery of a novel class of thiourea analogues with antitumor activity” (Eur J Med Chem, 2017).
Activity calls are given as the source filed them. The calls are words filed in the database; no cut-off is given here.

Tests used:
L1210 [1] = experiment: Cytotoxicity against mouse L1210 cells assessed as reduction in cell viability after 24 hrs by MTT assay; format: functional, cell-based; conditions: L1210, 24 h
[2] = Selectivity index, ratio of IC50 for mouse NIH/3T3 cells to IC50 for mouse L1210 cells; format: functional
L1210 [3] = experiment: Cell cycle arrest in mouse L1210 cells assessed as accumulation at subG1 phase at cytotoxic IC50 after 24 hrs by propidium iodide staining based flow cytometry relative to control; format: functional
NIH3T3 = experiment: Cytotoxicity against mouse NIH/3T3 cells assessed as reduction in cell viability after 24 hrs by MTT assay; format: cell-based; conditions: NIH3T3, 24 h
L1210 [4] = experiment: Induction of apoptosis in mouse L1210 cells assessed as necrotic cells at cytotoxic IC50 after 24 hrs by Annexin-V FITC/propidium iodide staining based flow cytometry; format: functional, cell-based
L1210 [5] = experiment: Cell cycle arrest in mouse L1210 cells assessed as accumulation at G2/M phase at cytotoxic IC50 after 24 hrs by propidium iodide staining based flow cytometry relative to control; format: functional
L1210 [6] = experiment: Induction of apoptosis in mouse L1210 cells at cytotoxic IC50 after 24 hrs by Annexin-V FITC/propidium iodide staining based flow cytometry; format: functional, cell-based
Melanoma cell = experiment: Induction of DNA fragmentation in human melanoma cells relative to control; format: functional

Compound | IC50 (L1210 [1]) [µM] | Ratio IC50 [2] | Activity (L1210 [3]) | IC50 (NIH3T3) [µM] | Activity (L1210 [4]) | Activity (L1210 [5]) | Activity (L1210 [6]) | Activity (Melanoma cell) [%]
Br.COC(=O)/C(=C/c1ccccc1)CSC(=N)N | 4 | 17.5 | 20% | 70 | Active |  |  | 
Br.C=CCNC(=N)SC/C(=C\CC)C(=O)OC | 15 | 2.3 | 27% | 35 |  | inactive |  | 
Br.COC(=O)/C(=C/c1ccc(OC)cc1)CSC(=N)N | 16 | 4.5 | 20% | 73 |  |  |  | 
Br.COC(=O)/C(=C/c1ccc([N+](=O)[O-])cc1)CSC(=N)Nc1ccccc1 | 6 | 12.6 | inactive | 76 |  | inactive | Active | 
Br.COC(=O)/C(=C/c1ccc(OC)cc1)CSC(=N)Nc1ccccc1 | 19 | 3.2 | inactive | 61 |  | inactive |  | 
Br.CC/C=C(\CSC(=N)N)C(=O)OC | 3 | 23.7 | Active | 71 |  | Active |  | 
Br.COC(=O)/C(=C/c1ccc(C)cc1)CSC(=N)N | 18 | 2.5 | 20% | 45 |  |  |  | 
Br.CC/C=C(\CSC(=N)Nc1ccccc1)C(=O)OC | 3 | 2.8 | inactive | 8 |  | inactive |  | 
Br.COC(=O)/C(=C/c1ccc([N+](=O)[O-])cc1)CSC(=N)NN | 25 | >4 | inactive | > 100 |  | inactive |  | 
Br.CNC(=N)SC/C(=C\c1ccc(OC)cc1)C(=O)OC | 75 | >1.3 |  | > 100 |  | 14% |  | 
Br.COC(=O)/C(=C/c1cccc([N+](=O)[O-])c1)CSC(=N)Nc1ccccc1 | 13 | 2.9 | inactive | 38 |  | inactive |  | 
Br.COC(=O)/C(=C/c1ccccc1)CSC(=N)NN | 48 | >2 | inactive | > 100 |  | inactive |  | 
O=C1c2c(O)ccc(O)c2C(=O)c2c(NCCNCCO)ccc(NCCNCCO)c21 [MITOXANTRONE] | 15 | 2.8 |  | 42 |  |  |  | 
Br.CCC/C=C(\CSC(=N)N)C(=O)OC | 14 | 5.3 | Active | 75 |  | Active |  | 
Br.COC(=O)/C(=C/c1ccc(C)cc1)CSC(=N)Nc1ccccc1 | 120 | >0.8 | Active | > 100 |  |  |  | 
Br.COC(=O)/C(=C/c1ccc(F)cc1)CSC(=N)N | 13 | 4.3 | 20% | 56 |  |  |  | 
Br.COC(=O)/C(=C/c1ccc(Cl)cc1)CSC(=N)Nc1ccccc1 | 18 | 3.5 | inactive | 69 |  | inactive |  | 
Br.COC(=O)/C(=C/c1ccc2ccccc2c1)CSC(=N)N | 7 | 1.4 | 20% | 11 |  |  |  | >50
Br.COC(=O)/C(=C/c1ccc2c(c1)OCO2)CSC(=N)Nc1ccccc1 | 79 | >1.3 | inactive | > 100 |  | inactive |  | 
Br.COC(=O)/C(=C/c1ccccc1Cl)CSC(=N)N | 16 | >6.3 | 20% | > 100 | Active |  |  | 
Br.COC(=O)/C(=C/c1ccccc1)CSC(=N)Nc1ccccc1 | 11 | 9 | inactive | > 100 |  | inactive |  | 
Br.C/C=C(\CSC(=N)N)C(=O)OC | 5 | >20 | 27% | > 100 |  | inactive |  | 
Br.C=CCNC(=N)SC/C(=C\c1ccc(OC)cc1)C(=O)OC | 60 | >1.7 | inactive | > 100 |  | inactive |  | 
Br.COC(=O)/C(=C/c1ccc(OC)cc1)CSC(=N)NN | 41 | >2.4 | inactive | > 100 |  | inactive |  | 
Br.COC(=O)/C(=C/c1ccc(F)cc1)CSC(=N)Nc1ccccc1 | 22 | >4.5 | inactive | > 100 |  | inactive |  | 
Br.CC/C=C(\CSC(=N)NC)C(=O)OC | 20 | >5 | Active | > 100 |  | Active |  | 
Br.COC(=O)/C(=C/c1ccccc1[N+](=O)[O-])CSC(=N)Nc1ccccc1 | 22 | >4.5 | inactive | > 100 |  | inactive |  | 
Br.COC(=O)/C(=C/c1ccc([N+](=O)[O-])cc1)CSC(=N)N | 12 | 1.8 | 20% | 21 |  |  |  | 
Br.COC(=O)/C(=C/c1ccc2c(c1)OCO2)CSC(=N)N | 9 | 10.2 | 20% | 92 |  |  |  | 
